What follows are compounds tested against Human α2δ-1 Subunit of Cav2.2 Calcium Channel (Homo sapiens, UniProt P54289) (assay: Binding assay to human α2δ-1 subunit of Cav2.2 calcium channel ([3H]-Gabapentin)). Settings: Table 1; human α2δ-1 enriched membranes, 15 nM [3H]-Gabapentin; read-out: Ki(nM) alpha2delta Hum.
Sequence of Human α2δ-1 Subunit of Cav2.2 Calcium Channel (P54289 25-1103): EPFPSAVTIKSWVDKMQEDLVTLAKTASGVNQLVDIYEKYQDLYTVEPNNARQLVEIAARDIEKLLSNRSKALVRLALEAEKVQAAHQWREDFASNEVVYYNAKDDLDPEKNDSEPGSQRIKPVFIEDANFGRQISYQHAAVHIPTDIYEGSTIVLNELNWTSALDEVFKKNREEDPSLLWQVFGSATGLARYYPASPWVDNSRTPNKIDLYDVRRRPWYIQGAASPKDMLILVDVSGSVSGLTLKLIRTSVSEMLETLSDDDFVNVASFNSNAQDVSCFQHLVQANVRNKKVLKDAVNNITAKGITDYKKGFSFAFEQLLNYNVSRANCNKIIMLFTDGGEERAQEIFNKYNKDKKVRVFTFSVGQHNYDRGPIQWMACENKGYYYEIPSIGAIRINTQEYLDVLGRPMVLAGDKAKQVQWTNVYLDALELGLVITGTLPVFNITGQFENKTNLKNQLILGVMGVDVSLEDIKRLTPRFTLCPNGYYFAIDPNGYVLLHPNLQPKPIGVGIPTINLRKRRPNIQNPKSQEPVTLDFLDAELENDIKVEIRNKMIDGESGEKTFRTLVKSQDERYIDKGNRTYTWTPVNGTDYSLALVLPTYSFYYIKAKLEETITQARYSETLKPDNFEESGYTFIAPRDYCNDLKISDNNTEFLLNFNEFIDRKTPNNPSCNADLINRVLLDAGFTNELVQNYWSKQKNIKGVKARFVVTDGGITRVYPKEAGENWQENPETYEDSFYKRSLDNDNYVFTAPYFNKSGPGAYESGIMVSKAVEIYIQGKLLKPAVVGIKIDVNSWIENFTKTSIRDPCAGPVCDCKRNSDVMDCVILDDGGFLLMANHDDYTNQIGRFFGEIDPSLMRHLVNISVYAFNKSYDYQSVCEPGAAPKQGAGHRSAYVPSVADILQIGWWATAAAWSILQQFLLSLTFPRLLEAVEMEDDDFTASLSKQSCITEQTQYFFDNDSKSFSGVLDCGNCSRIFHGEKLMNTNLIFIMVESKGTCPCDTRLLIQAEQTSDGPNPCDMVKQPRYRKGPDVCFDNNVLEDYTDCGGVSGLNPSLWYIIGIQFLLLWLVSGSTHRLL
Experimental: Binding Assay to Human α2δ-1 Subunit of Cav2.2 Calcium Channel.
Human α2δ-1 enriched membranes (2.5 μg) were incubated with 15 nM of radiolabeled [3H]-Gabapentin in assay buffer containing Hepes-KOH 10 mM, pH 7.4.
NSB (non specific binding) was measured by adding 10 μM pregabalin. The binding of the test compound was measured in five different concentrations. After 60 min incubation at 27° C., binding reaction was terminated by filtering through Multiscreen GF/C (Millipore) presoaked in 0.5% polyethyleneimine in Vacuum Manifold Station, followed by 3 washes with ice-cold filtration buffer containing 50 mM Tris-HCl, pH 7.4.
Filter plates were dried at 60° C. for 1 hour and 30 μl of scintillation cocktail were added to each well before radioactivity reading.
Readings were performed in a Trilux 1450 Microbeta radioactive counter (Perkin Elmer).
`CCN(Cc1ccccc1)Cc1cccc(OC(CCNC)c2cccs2)c1` (centres unmarked) [Example 1, 3-(3-((Benzyl(ethyl)amino)methyl)phenoxy)-N-methyl-3-(thiophen-2-yl)propan-1-amine] gave a Ki of 100 to 500 nM.
With `CNCCC(Oc1cccc(CNC)c1)c1cccs1` (centres unmarked) [Example 3, N-methyl-3-(3-((methylamino)methyl)phenoxy)-3-(thiophen-2-yl)propan-1-amine] the Ki was 100 to 500 nM.
`CNCCC(Oc1cccc(CN(C)C)c1)c1cccs1` (centres unmarked) [Example 4, 3-(3-((Dimethylamino)methyl)phenoxy)-N-methyl-3-(thiophen-2-yl)propan-1-amine] was tested, and the Ki was 100 to 500 nM.
`CCNCc1cccc(OC(CCNC)c2cccs2)c1` (centres unmarked) [Example 5, 3-(3-((Ethylamino)methyl)phenoxy)-N-methyl-3-(thiophen-2-yl)propan-1-amine] was tested, and the Ki was 100 to 500 nM.
`CNCCC(Oc1cccc(C(=O)NCc2ccccn2)c1)c1cccs1` (centres unmarked) [Example 7, 3-(3-(Methylamino)-1-(thiophen-2-yl)propoxy)-N-(pyridin-2-ylmethyl)benzamide] showed a Ki of at least 3000 nM.
With `CNCCC(Oc1cccc(C(=O)Nc2cccnc2)c1)c1cccs1` (centres unmarked) [Example 8, 3-(3-(Methylamino)-1-(thiophen-2-yl)propoxy)-N-(pyridin-3-yl)benzamide] the Ki was 500 to 3000 nM.
`CNCCC(Oc1cccc(C(=O)Nc2cccc(-c3nnc(C)o3)c2)c1)c1cccs1` (centres unmarked) [Example 9, N-(3-(5-methyl-1,3,4-oxadiazol-2-yl)phenyl)-3-(3-(methylamino)-1-(thiophen-2-yl)propoxy)benzamide] gave a Ki of 500 to 3000 nM.
`CNCCC(Oc1cccc(C(=O)NCc2ccccc2)c1)c1cccs1` (centres unmarked) [Example 10, N-benzyl-3-(3-(methylamino)-1-(thiophen-2-yl)propoxy)benzamide] gave a Ki of 500 to 3000 nM.
In the case of `CNCCC(Oc1cccc(C(=O)Nc2ccccc2CN(C)C)c1)c1cccs1` (centres unmarked) [Example 11, N-(2-((dimethylamino)methyl)phenyl)-3-(3-(methylamino)-1-(thiophen-2-yl)propoxy)benzamide], the Ki is reported as 500 to 3000 nM.
Compound `CNCCC(Oc1cccc(C(=O)Nc2ccccc2N(C)C)c1)c1cccs1` (centres unmarked) [Example 12, N-(2-(dimethylamino)phenyl)-3-(3-(methylamino)-1-(thiophen-2-yl)propoxy)benzamide] has a Ki of 500 to 3000 nM.
`CNCCC(Oc1cccc(C(=O)NC)c1)c1ccccc1` (centres unmarked) [Example 16, N-methyl-3-(3-(methylamino)-1-phenylpropoxy)benzamide] was tested, and the Ki was at least 3000 nM.
`CCNC(=O)c1cccc(OC(CCNC)c2ccccc2)c1` (centres unmarked) [Example 19, N-ethyl-3-(3-(methylamino)-1-phenylpropoxy)benzamide] showed a Ki of at least 3000 nM.
`CCNc1ccc(NC(=O)c2cccc(OC(CCNC)c3ccccc3)c2)cn1` (centres unmarked) [Example 21, N-(6-(ethylamino)pyridin-3-yl)-3-(3-(methylamino)-1-phenylpropoxy)benzamide] showed a Ki of at least 3000 nM.
Compound `CNCCC(Oc1cccc(N(C)C(=O)c2ccccc2)c1)c1ccccc1` (centres unmarked) [Example 23, N-methyl-N-(3-(3-(methylamino)-1-phenylpropoxy)phenyl) benzamide] has a Ki of at least 3000 nM.
With `CNCCC(Oc1cccc(N(C)C(C)=O)c1)c1ccccc1` (centres unmarked) [Example 24, N-methyl-N-(3-(3-(methylamino)-1-phenylpropoxy)phenyl)acetamide] the Ki was at least 3000 nM.
For `CCCC(=O)N(C)c1cccc(OC(CCNC)c2ccccc2)c1` (centres unmarked) [Example 25, N-methyl-N-(3-(3-(methylamino)-1-phenylpropoxy)phenyl)butyramide], the Ki was at least 3000 nM.
Compound `CNCCC(Oc1cccc(N(C)C(=O)c2cccnc2)c1)c1ccccc1` (centres unmarked) [Example 26, N-methyl-N-(3-(3-(methylamino)-1-phenylpropoxy)phenyl)nicotinamide] has a Ki of at least 3000 nM.
Work on `CCNc1ncc(C(=O)N(C)c2cccc(OC(CCNC)c3ccccc3)c2)c(N2CCCC2)n1` (centres unmarked) [Example 29, 2-(Ethylamino)-N-methyl-N-(3-(3-(methylamino)-1-phenylpropoxy)phenyl)-4-(pyrrolidin-1-yl)pyrimidine-5-carboxamide] yielded a Ki of at least 3000 nM.
In the case of `CCNc1ncc(C(=O)N(C)c2cccc(OC(CCNC)c3cccs3)c2)c(N2CCCC2)n1` (centres unmarked) [Example 30, 2-(Ethylamino)-N-methyl-N-(3-(3-(methylamino)-1-(thiophen-2-yl)propoxy)phenyl)-4-(pyrrolidin-1-yl)pyrimidine-5-carboxamide], the Ki is reported as 500 to 3000 nM.
With `CNCCC(OCc1cccc(N(C)C(=O)c2ccccc2)c1)c1ccccc1` (centres unmarked) [Example 31, N-methyl-N-(3-((3-(methylamino)-1-phenylpropoxy)methyl)phenyl)benzamide] the Ki was at least 3000 nM.
`CNCCC(OCc1cccc(N(C)C(=O)c2cccnc2)c1)c1ccccc1` (centres unmarked) [Example 32, N-methyl-N-(3-((3-(methylamino)-1-phenylpropoxy)methyl)phenyl)nicotinamide] was tested, and the Ki was at least 3000 nM.
In the case of `CNCCC(OCc1cccc(N(C)C(=O)c2cnc(OC)nc2)c1)c1ccccc1` (centres unmarked) [Example 33, 2-Methoxy-N-methyl-N-(3-((3-(methylamino)-1-phenylpropoxy)methyl)phenyl)pyrimidine-5-carboxamide], the Ki is reported as at least 3000 nM.
For `CNCCC(OCc1cccc(N(C)C(=O)c2cncnc2)c1)c1ccccc1` (centres unmarked) [Example 34, N-methyl-N-(3-((3-(methylamino)-1-phenylpropoxy)methyl)phenyl)pyrimidine-5-carboxamide], the Ki was at least 3000 nM.
In the case of `CNCCC(OCc1cccc(N(C)C(=O)c2cnc(SC)nc2)c1)c1ccccc1` (centres unmarked) [Example 35, N-methyl-N-(3-((3-(methylamino)-1-phenylpropoxy)methyl)phenyl)-2-(methylthio)pyrimidine-5-carboxamide], the Ki is reported as at least 3000 nM.
Compound `CNCCC(OCc1cccc(N(C)C(=O)c2ccccn2)c1)c1ccccc1` (centres unmarked) [Example 36, N-methyl-N-(3-((3-(methylamino)-1-phenylpropoxy)methyl)phenyl)picolinamide] has a Ki of at least 3000 nM.
With `CCNc1ncc(C(=O)N(C)c2cccc(COC(CCNC)c3ccccc3)c2)c(N2CCCC2)n1` (centres unmarked) [Example 37, 2-(Ethylamino)-N-methyl-N-(3-((3-(methylamino)-1-phenylpropoxy)methyl)phenyl)-4-(pyrrolidin-1-yl)pyrimidine-5-carboxamide] the Ki was 500 to 3000 nM.
With `CNCCC(OCc1cccc(NC(=O)c2cccnc2)c1)c1ccccc1` (centres unmarked) [Example 40, N-(3-((3-(methylamino)-1-phenylpropoxy)methyl)phenyl)nicotinamide] the Ki was at least 3000 nM.
With `CNCCC(OCc1cccc(NC(=O)c2cncnc2)c1)c1ccccc1` (centres unmarked) [Example 42, N-(3-((3-(methylamino)-1-phenylpropoxy)methyl)phenyl)pyrimidine-5-carboxamide] the Ki was at least 3000 nM.
In the case of `CNCCC(OCc1cccc(NC(=O)c2cnc(SC)nc2)c1)c1ccccc1` (centres unmarked) [Example 44, N-(3-((3-(methylamino)-1-phenylpropoxy)methyl)phenyl)-2-(methylthio)pyrimidine-5-carboxamide], the Ki is reported as at least 3000 nM.
With `CCNc1ncc(C(=O)Nc2cccc(COC(CCNC)c3ccccc3)c2)c(N2CCCC2)n1` (centres unmarked) [Example 45, 2-(Ethylamino)-N-(3-((3-(methylamino)-1-phenylpropoxy)methyl)phenyl)-4-(pyrrolidin-1-yl)pyrimidine-5-carboxamide] the Ki was 500 to 3000 nM.
`CNCCC(OCc1cccc(NC(=O)c2ccccc2N(C)C)c1)c1cccs1` (centres unmarked) [Example 47, 2-(Dimethylamino)-N-(3-((3-(methylamino)-1-(thiophen-2-yl)propoxy)methyl)phenyl)benzamide] showed a Ki of at least 3000 nM.
With `CCNc1ncc(C(=O)Nc2cccc(COC(CCNC)c3cccs3)c2)c(N2CCCC2)n1` (centres unmarked) [Example 49, 2-(Ethylamino)-N-(3-((3-(methylamino)-1-(thiophen-2-yl)propoxy)methyl)phenyl)-4-(pyrrolidin-1-yl)pyrimidine-5-carboxamide] the Ki was 500 to 3000 nM.
`CCNc1ncc(C(=O)Nc2cccc(OC(CCNC)c3cccs3)c2)c(N2CCCC2)n1` (centres unmarked) [Example 51, 2-(Ethylamino)-N-(3-(3-(methylamino)-1-(thiophen-2-yl)propoxy)phenyl)-4-(pyrrolidin-1-yl)pyrimidine-5-carboxamide] gave a Ki of 500 to 3000 nM.
Compound `CNCCC(OCc1cccc(NCc2ccccc2)c1)c1ccccc1` (centres unmarked) [Example 52, N-benzyl-3-((3-(methylamino)-1-phenylpropoxy)methyl)aniline] has a Ki of at least 3000 nM.
`CNCCC(OCc1cccc(NCc2cncnc2)c1)c1ccccc1` (centres unmarked) [Example 53, 3-((3-(Methylamino)-1-phenylpropoxy)methyl)-N-(pyrimidin-5-ylmethyl)aniline] was tested, and the Ki was at least 3000 nM.
`CN(C)CCC(OCc1cccc(NC(=O)c2ccccc2)c1)c1cccs1` (centres unmarked) [Example 54, N-(3-((3-(dimethylamino)-1-(thiophen-2-yl)propoxy)methyl)phenyl) benzamide] showed a Ki of at least 3000 nM.
With `CN(C)CCC(OCc1cccc(NC(=O)c2ccccc2N(C)C)c1)c1cccs1` (centres unmarked) [Example 55, 2-(Dimethylamino)-N-(3-((3-(dimethylamino)-1-(thiophen-2-yl)propoxy)methyl)phenyl)benzamide] the Ki was at least 3000 nM.
Compound `CCN(Cc1cccc(OC(CCNC)c2cccs2)c1)C(=O)c1ccccc1` (centres unmarked) [Example 56, N-ethyl-N-(3-(3-(methylamino)-1-(thiophen-2-yl)propoxy)benzyl) benzamide] has a Ki of at least 3000 nM.
`CNCCC(OCc1cccc(N(Cc2ccccc2)C(C)=O)c1)c1ccccc1` (centres unmarked) [Example 57, N-benzyl-N-(3-((3-(methylamino)-1-phenylpropoxy)methyl)phenyl) acetamide] gave a Ki of at least 3000 nM.
In the case of `CNCCC(OCc1cccc(Nc2ncccn2)c1)c1ccccc1` (centres unmarked) [Example 59, N-(3-((3-(methylamino)-1-phenylpropoxy)methyl)phenyl)pyrimidin-2-amine], the Ki is reported as at least 3000 nM.
In the case of `CCNc1ncc(C(=O)N(C)c2cccc(OC(CCNC)c3ccccc3)c2)cn1` (centres unmarked) [Example 60, 2-(Ethylamino)-N-methyl-N-(3-(3-(methylamino)-1-phenylpropoxy)phenyl)pyrimidine-5-carboxamide], the Ki is reported as at least 3000 nM.

Reference: US11111220B2, “Propanamine derivatives for treating pain and pain related conditions” (ESTEVE PHARMACEUTICALS, S.A., priority 2017, dated 2021)
